Values quoted from earlier work as cited in PubChem BioAssay AID1259409 (Chemical Carcinogenesis Research Information System (CCRIS), 2018).

Tested on: rodent chemically induced tumor inhibition, incidence and multiplicity
Assay: CCRIS tumor inhibitor studies
Conditions: for tumour outcome (control, treated, inhibition, significance): Route [Inhibitor]: ORAL

| SMILES | tumour outcome (control, treated, inhibition, significance) (Carcinogen: 4-NITROQUINOLINE-1-OXIDE, 56-57-5, Dose [Inhibitor]: 0, 100 PPM IN DIET FOR 10 WK BEGINNING PRIOR TO CARCINOGEN TREATMENT (STUDY DURATION: 32 WK), Species: RAT, Strain/Sex: F344/MALE, Target Tissue: Type of Lesion: TONGUE: PAPILLOMA, Dose [Carcinogen]: 20 PPM IN DRINKING WATER FOR 8 WK, Promoter: NONE USED) | tumour outcome (control, treated, inhibition, significance) (Carcinogen: 4-NITROQUINOLINE-1-OXIDE, 56-57-5, Dose [Inhibitor]: 0, 100 PPM IN DIET FOR 10 WK BEGINNING PRIOR TO CARCINOGEN TREATMENT (STUDY DURATION: 32 WK), Species: RAT, Strain/Sex: F344/MALE, Target Tissue: Type of Lesion: TONGUE: SQUAMOUS CELL CARCINOMA, Dose [Carcinogen]: 20 PPM IN DRINKING WATER FOR 8 WK, Promoter: NONE USED) | tumour outcome (control, treated, inhibition, significance) (Carcinogen: 4-NITROQUINOLINE-1-OXIDE, 56-57-5, Dose [Inhibitor]: 0, 100 PPM IN DIET FOR 22 WK BEGINNING 1 WK POST CARCINOGEN TREATMENT (STUDY DURATION: 32 WK), Species: RAT, Strain/Sex: F344/MALE, Target Tissue: Type of Lesion: TONGUE: PAPILLOMA, Dose [Carcinogen]: 20 PPM IN DRINKING WATER FOR 8 WK, Promoter: NONE USED) | tumour outcome (control, treated, inhibition, significance) (Carcinogen: 4-NITROQUINOLINE-1-OXIDE, 56-57-5, Dose [Inhibitor]: 0, 100 PPM IN DIET FOR 22 WK BEGINNING 1 WK POST CARCINOGEN TREATMENT (STUDY DURATION: 32 WK), Species: RAT, Strain/Sex: F344/MALE, Target Tissue: Type of Lesion: TONGUE: SQUAMOUS CELL CARCINOMA, Dose [Carcinogen]: 20 PPM IN DRINKING WATER FOR 8 WK, Promoter: NONE USED) | tumour outcome (control, treated, inhibition, significance) (Carcinogen: N-BUTYL-N-(4-HYDROXYBUTYL)NITROSAMINE, 3817-11-6, Dose [Inhibitor]: 0, 50 PPM IN DRINKING WATER FOR 2O WK BEGINNING 1 WK POST CARCINOGEN TREATMENT (STUDY DURATION: 41 WK), Species: MOUSE, Strain/Sex: ICR/MALE, Target Tissue: Type of Lesion: URINARY BLADDER: CARCINOMA, Dose [Carcinogen]: 250 PPM IN DRINKING WATER FOR 20 WK, Promoter: NONE USED) | tumour outcome (control, treated, inhibition, significance) (Carcinogen: N-BUTYL-N-(4-HYDROXYBUTYL)NITROSAMINE, 3817-11-6, Dose [Inhibitor]: 0, 50 PPM IN DRINKING WATER FOR 20 WK BEGINNING 1 WK POST CARCINOGEN TREATMENT (STUDY DURATION: 41 WK), Species: MOUSE, Strain/Sex: ICR/MALE, Target Tissue: Type of Lesion: URINARY BLADDER: PAPILLOMA, Dose [Carcinogen]: 250 PPM IN DRINKING WATER FOR 20 WK, Promoter: NONE USED) | tumour outcome (control, treated, inhibition, significance) (Carcinogen: N-BUTYL-N-N(4-4-HYDROXYBUTYL)-NITROSAMINE [3817-11-6], Dose [Inhibitor]: 200 MG/KG IN DIET FOR 36 WK BEGINNING 1 WK PRIOR TO FIRST CARCINOGEN DOSE (STUDY DURATION: 36 WK), Species: MOUSE, Strain/Sex: B6D2F1/MALE, Target Tissue: Type of Lesion: URINARY BLADDER: TUMOR, Dose [Carcinogen]: 7.5 MG IN 0.1 ML 20% ETHANOL 1X/WK FOR 12 WK (STUDY DURATION: 36 WK), Promoter: NONE) | tumour outcome (control, treated, inhibition, significance) (Carcinogen: N-BUTYL-N-N(4-4-HYDROXYBUTYL)-NITROSAMINE [3817-11-6], Dose [Inhibitor]: 500 MG/KG IN DIET FOR 27 WK BEGINNING 1 WK POST LAST CARCINOGEN DOSE (STUDY DURATION: 8 MONTHS), Species: RAT, Strain/Sex: F344/FEMALE, Target Tissue: Type of Lesion: URINARY BLADDER: TUMOR, Dose [Carcinogen]: 150 MG IN 0.5 ML 20% ETHANOL 2X/WK FOR 8 WK (STUDY DURATION: 8 MONTHS), Promoter: NONE) | tumour outcome (control, treated, inhibition, significance) (Carcinogen: N-BUTYL-N-N(4-4-HYDROXYBUTYL)-NITROSAMINE [3817-11-6], Dose [Inhibitor]: 500 MG/KG IN DIET FOR 36 WK BEGINNING 1 WK PRIOR TO FIRST CARCINOGEN DOSE (STUDY DURATION: 36 WK), Species: MOUSE, Strain/Sex: B6D2F1/MALE, Target Tissue: Type of Lesion: URINARY BLADDER: TUMOR, Dose [Carcinogen]: 7.5 MG IN 0.1 ML 20% ETHANOL 1X/WK FOR 12 WK (STUDY DURATION: 36 WK), Promoter: NONE) | tumour outcome (control, treated, inhibition, significance) (Carcinogen: N-BUTYL-N-N(4-4-HYDROXYBUTYL)-NITROSAMINE [3817-11-6], Dose [Inhibitor]: 500 MG/KG IN DIET FOR 36 WK BEGINNING 1 WK PRIOR TO FIRST CARCINOGEN DOSE (STUDY DURATION: 36 WK), Species: RAT, Strain/Sex: F344/FEMALE, Target Tissue: Type of Lesion: URINARY BLADDER: TUMOR, Dose [Carcinogen]: 150 MG IN 0.5 ML 20% ETHANOL 2X/WK FOR 8 WK (STUDY DURATION: 36 WK), Promoter: NONE) | tumour outcome (control, treated, inhibition, significance) (Carcinogen: N-BUTYL-N-N(4-4-HYDROXYBUTYL)-NITROSAMINE [3817-11-6], Dose [Inhibitor]: 1000 MG/KG IN DIET FOR 27 WK BEGINNING 1 WK POST LAST CARCINOGEN DOSE (STUDY DURATION: 8 MONTHS), Species: RAT, Strain/Sex: F344/FEMALE, Target Tissue: Type of Lesion: URINARY BLADDER: TUMOR, Dose [Carcinogen]: 150 MG IN 0.5 ML 20% ETHANOL 2X/WK FOR 8 WK (STUDY DURATION: 8 MONTHS), Promoter: NONE) | tumour outcome (control, treated, inhibition, significance) (Carcinogen: N-BUTYL-N-N(4-4-HYDROXYBUTYL)-NITROSAMINE [3817-11-6], Dose [Inhibitor]: 1000 MG/KG IN DIET FOR 36 WK BEGINNING 1 WK PRIOR TO FIRST CARCINOGEN DOSE (STUDY DURATION: 36 WK), Species: RAT, Strain/Sex: F344/FEMALE, Target Tissue: Type of Lesion: URINARY BLADDER: TUMOR, Dose [Carcinogen]: 150 MG IN 0.5 ML 20% ETHANOL 2X/WK FOR 8 WK (STUDY DURATION: 36 WK), Promoter: NONE) | tumour outcome (control, treated, inhibition, significance) (Carcinogen: N-BUTYL-N-N(4-4-HYDROXYBUTYL)-NITROSAMINE [3817-11-6], Dose [Inhibitor]: 1250 MG/KG IN DIET FOR 36 WK BEGINNING 1 WK PRIOR TO FIRST CARCINOGEN DOSE (STUDY DURATION: 36 WK), Species: MOUSE, Strain/Sex: B6D2F1/MALE, Target Tissue: Type of Lesion: URINARY BLADDER: TUMOR, Dose [Carcinogen]: 7.5 MG IN 0.1 ML 20% ETHANOL 1X/WK FOR 12 WK (STUDY DURATION: 36 WK), Promoter: NONE) | outcome (Carcinogen: N-nitrosodiethylamine (55-18-5), Dose [Inhibitor]: 1500 mg/kg in diet for 38 wk, study duration 38 wk, Route [Inhibitor]: Oral, Species: Rat, Strain/Sex: Wistar/Male, Target Tissue: Type of Lesion: Liver: Neoplasia, Dose [Carcinogen]: 100 mg/l in drinking water for 4 mo, Promoter: None) |
| --- | --- | --- | --- | --- | --- | --- | --- | --- | --- | --- | --- | --- | --- | --- |
| CC1=C(/C=C/C(C)=C/C=C/C(C)=C/C=C/C=C(C)/C=C/C=C(C)/C=C/C2=C(C)C(=O)[C@@H](O)CC2(C)C)C(C)(C)C[C@H](O)C1=O | 4/24 (17%), 0/18 (0%), 100%, p<0.05 | 13/24 (54%), 0/18 (0%), 100%, p<0.05 | 4/24 (17%), 0/20 (0%), 100%, p<0.05 | 13/24 (54%), 0/20 (0%), 100%, p<0.05 | 15/36 (42%), 6/33 (18%), 57%, p<0.05 | 2/36 (6%), 4/33 (12%), -100%, not significant |  |  |  |  |  |  |  |  |
| Cc1ccc(-c2cc(C(F)(F)F)nn2-c2ccc(S(N)(=O)=O)cc2)cc1 |  |  |  |  |  |  | 51%, 29%, 43%, significance level not shown | 57%, 4%, 93%, significance level not shown | 51%, 24%, 53%, significance level not shown | 17/30 (57%), 4/28 (14%), 75%, significance level not shown | 57%, 0%, 100%, significance level not shown | 17/30 (57%), 6/29 (21%), 63%, significance level not shown | 51%, 12%, 76%, significance level not shown | 91.7, 65.2, p<0.05 |
